From patent US12440487B2, “Method of normalizing the neutrophil to lymphocyte ratio in cancer patients with a selective glucocorticoid receptor antagonist” (Corcept Therapeutics Incorporated, priority 2019, dated 2025)
Several values for one entry are separate records, joined by “and”; a condition that tells them apart may be missing. Equal entries are not always repeated. Entries after “also recorded” stand apart in the source; their conditions may differ.

Tests used:
[1] = system: neutrophil-to-lymphocyte ratio (NLR); test: Prednisone-challenge NLR study in healthy subjects (NCT03508635, SAD and MAD cohorts); format: in vivo, human
Method: Methods: Lymphocyte and neutrophil abundance were determined using standard differential complete blood count tests.
(§1) Healthy subjects were enrolled in the NCT03508635 study of relacorilant. […] (C) is the Figure legend.
(§2) The intensive NLR sampling was conducted at time 0 (morning, pre-dose) and then 2, 4, 8, 12, and 24 hours thereafter. The single NLR samples were collected in the in the morning, pre-dose. The SAD portion of this experiment used a 500 mg dose while the MAD used a once daily 250 mg dose.
(§3) Blood was also drawn in the morning, pre-dose.

[2] = target: glucocorticoid receptor (GR) (Homo sapiens, UniProt P04150); details: binds to GR, PR and AR; cited from earlier work
Sequence of glucocorticoid receptor (GR) (P04150 whole entry, species assumed): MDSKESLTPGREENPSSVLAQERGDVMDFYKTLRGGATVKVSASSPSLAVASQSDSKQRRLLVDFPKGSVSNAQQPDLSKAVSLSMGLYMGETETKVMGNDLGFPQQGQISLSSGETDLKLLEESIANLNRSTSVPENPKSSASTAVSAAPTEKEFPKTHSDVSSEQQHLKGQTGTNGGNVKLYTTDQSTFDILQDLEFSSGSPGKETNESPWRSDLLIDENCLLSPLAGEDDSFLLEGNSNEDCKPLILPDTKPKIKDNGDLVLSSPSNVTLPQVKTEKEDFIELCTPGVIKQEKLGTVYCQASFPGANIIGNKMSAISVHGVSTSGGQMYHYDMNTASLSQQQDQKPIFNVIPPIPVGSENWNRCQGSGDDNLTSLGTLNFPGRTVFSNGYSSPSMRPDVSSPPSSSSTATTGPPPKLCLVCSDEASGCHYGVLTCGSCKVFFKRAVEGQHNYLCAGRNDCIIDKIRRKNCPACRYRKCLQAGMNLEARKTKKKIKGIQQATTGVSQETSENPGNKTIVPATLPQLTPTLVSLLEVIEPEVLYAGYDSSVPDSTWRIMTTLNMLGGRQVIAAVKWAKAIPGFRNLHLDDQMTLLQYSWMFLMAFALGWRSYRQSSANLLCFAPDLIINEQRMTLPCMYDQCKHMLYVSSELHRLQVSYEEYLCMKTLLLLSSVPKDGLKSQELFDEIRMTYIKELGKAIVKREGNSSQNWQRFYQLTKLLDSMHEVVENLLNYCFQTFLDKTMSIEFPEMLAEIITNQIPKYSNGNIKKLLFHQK

[3] = system: neutrophil or lymphocyte abundance in the blood; details: healthy men / healthy subjects; cited from earlier work
[4] = system: neutrophil-to-lymphocyte ratio (NLR); test: Relacorilant alone, NLR in healthy subjects (NCT03508635); format: in vivo, human; details: 250 mg for 14 continuous days, cohort of 7 healthy subjects, none with baseline NLR greater than 3
Method: as §1, §2, §3
The normalization of the NLR by relacorilant is thought to occur through antagonism of endogenous cortisol. If patients have elevated cortisol activity, relacorilant would be expected to normalize this activity. Alternatively, relacorilant alone could cause neutropenia (reduction in neutrophils) or lymphocytosis (increase in lymphocytes) via antagonism of normal endogenous cortisol. To distinguish these two possibilities, we assessed the effects of relacorilant alone in healthy subject with normal endogenous cortisol. After 14 administering 250 mg of relacorilant for 14 continuous days, no change in the NLR was observed across a cohort of 7 healthy subjects (FIG. 7).

[5] = system: neutrophil-to-lymphocyte ratio (NLR); test: 7-day single-agent relacorilant lead-in, NLR in patients with advanced solid tumors (NCT02762981); format: in vivo, human; details: for patients who experienced a decrease in NLR / average change in NLR: 7-day relacorilant lead-in
Method: The relacorilant lead-in included daily dosing of relacorilant alone (without nab-paclitaxel) for 7 days.
Drug concentrations were determined in study NCT02762981. Blood was collected at multiple timepoints on day 7 of relacorilant dosing. Upon collection, blood was chelated with EDTA, centrifuged, and plasma was aliquoted. Bioanalytical analyses were conducted by MicroConstants (San Diego, CA, USA). In brief, human plasma samples containing relacorilant and its stable-labeled analog as an internal standard and K3EDTA as the anticoagulant were buffered with an ammonium citrate solution and extracted with 2-butanol:hexane (2.5:97.5, v/v). The samples were vortex mixed, centrifuged and the lower portion was frozen in an ultra-cold freezer. The organic portion was transferred to a clean tube and evaporated under nitrogen. The extracts were dried, reconstituted and analyzed by reversed-phase HPLC using an ACE UltraCore SuperPhenylHexyl column. The mobile phase was nebulized using heated nitrogen in a Z-spray source/interface set to electrospray positive ionization mode. The ionized compounds were detected using MS/MS.
as §3

progesterone receptor = target: T1, progesterone receptor (Homo sapiens, UniProt P06401); details: cited from earlier work
T1 sequence (P06401 1-933): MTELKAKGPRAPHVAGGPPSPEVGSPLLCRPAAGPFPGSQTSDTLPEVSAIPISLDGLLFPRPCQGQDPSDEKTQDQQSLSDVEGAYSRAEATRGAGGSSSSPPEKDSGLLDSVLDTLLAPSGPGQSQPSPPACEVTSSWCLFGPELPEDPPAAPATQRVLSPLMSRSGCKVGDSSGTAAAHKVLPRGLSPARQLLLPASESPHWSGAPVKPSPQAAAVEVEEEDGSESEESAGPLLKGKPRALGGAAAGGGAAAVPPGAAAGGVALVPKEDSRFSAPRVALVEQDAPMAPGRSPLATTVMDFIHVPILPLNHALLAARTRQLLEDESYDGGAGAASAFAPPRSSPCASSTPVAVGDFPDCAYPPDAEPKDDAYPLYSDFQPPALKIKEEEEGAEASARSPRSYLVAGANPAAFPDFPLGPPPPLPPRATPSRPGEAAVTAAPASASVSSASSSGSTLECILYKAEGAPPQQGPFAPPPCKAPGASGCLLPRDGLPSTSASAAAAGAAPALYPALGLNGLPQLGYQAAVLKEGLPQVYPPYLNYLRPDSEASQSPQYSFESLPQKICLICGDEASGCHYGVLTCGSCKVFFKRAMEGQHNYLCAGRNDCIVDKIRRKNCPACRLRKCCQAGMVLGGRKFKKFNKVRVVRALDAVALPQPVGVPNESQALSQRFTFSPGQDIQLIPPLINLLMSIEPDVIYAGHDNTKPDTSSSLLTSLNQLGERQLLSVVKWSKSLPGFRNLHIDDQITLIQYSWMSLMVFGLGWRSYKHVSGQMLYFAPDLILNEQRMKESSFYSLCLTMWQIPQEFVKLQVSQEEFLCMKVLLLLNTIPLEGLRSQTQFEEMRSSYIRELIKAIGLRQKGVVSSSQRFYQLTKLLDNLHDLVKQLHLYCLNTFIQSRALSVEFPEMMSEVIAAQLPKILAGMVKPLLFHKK

## C[C@]12C=CC(=O)C=C1CC[C@@H]1[C@@H]2C(=O)C[C@@]2(C)[C@H]1CC[C@]2(O)C(=O)CO [prednisone, 17α,21-dihydroxypregna-1,4-diene-3,11,20-trione, reference compound]
[1]; 25 mg prednisone after 14 consecutive days of placebo, different subjects
  NLR area under the curve: 72 NLR*hr
[1]; 9 healthy subjects, single dose 25 mg prednisone, baseline less than 2, returned to baseline after 24 hours
  NLR at 8 hours post prednisone: greater than 6
[1]; MAD cohort, 25 mg prednisone alone, same subjects on Day −5
  NLR area under the curve: 61.7 NLR*hr
[1]; SAD cohort, 25 mg prednisone alone
  NLR area under the curve: 54.6 NLR*hr
[1]; healthy subjects (n=9), 25 mg prednisone
  acute increase of the neutrophil-to-lymphocyte ratio (NLR): 4.7 fold

## CC#C[C@]1(O)CC[C@H]2[C@@H]3CCC4=CC(=O)CCC4=C3[C@@H](c3ccc(N(C)C)cc3)C[C@@]21C [mifepristone, 11β-(4-dimethylaminophenyl)-17β-hydroxy-17α-(1-propynyl)-estra-4,9-dien-3-one]
[2]
  selectivity for GR: not selective
[3]
  effect on neutrophil or lymphocyte abundance in the blood: does not alter

## Cn1cc(S(=O)(=O)N2CCC3=Cc4c(cnn4-c4ccc(F)cc4)C[C@]3(C(=O)c3cc(C(F)(F)F)ccn3)C2)cn1 [relacorilant, (R)-(1-(4-fluorophenyl)-6-((1-methyl-1H-pyrazol-4-yl)sulfonyl)-4,4a,5,6,7,8-hexahydro-1H-pyrazolo[3,4-g]isoquinolin-4a-yl)(4-(trifluoromethyl)pyridin-2-yl)methanone]
[4]
  change in the NLR with relacorilant alone: no change; also recorded: does not change
[5]; patients with AUC between 2011-8000 ng*hr/ml (6/13)
  patients who experienced a decrease in NLR: 46%
[5]; patients with AUC between 3740-8000 ng*hr/ml
  average change in NLR: −6.1%
[5]; patients with AUC<2011 ng*hr/ml or Cmax<442 ng/ml
  patients who experienced a decrease in NLR: None
[5]; patients with Cmax between 442-1000 ng/ml (6/9)
  patients who experienced a decrease in NLR: 67%
[5]; patients with Cmax between 595-836 ng/ml
  average change in NLR: −4.4%
[5]; ovarian cancer patient 038-4004, 7-day relacorilant lead-in
  NLR change from baseline (CfB): −46% and −55%
[5]; ovarian cancer patient 038-4004, 7-day relacorilant lead-in, NLR before 5.5
  NLR after relacorilant lead-in: 2.5
Progesterone receptor
  antagonism of the progesterone receptor: does not antagonize
[1]; 14 consecutive days of 250 mg/day relacorilant, then 25 mg prednisone, healthy subjects
  effect on prednisone-induced NLR increase: significantly blunted; also recorded: reversed the effects
[1]; MAD cohort, 25 mg prednisone after 14 consecutive days of 250 mg/day relacorilant
  NLR area under the curve: 9.6 NLR*hr
[1]; SAD cohort, single 500 mg dose relacorilant administered with 25 mg prednisone
  NLR area under the curve: 12.5 NLR*hr
[1]; relacorilant co-administration with 25 mg prednisone, healthy subjects (n=9)
  effect on prednisone-induced NLR increase: reversed this effect
[1]; single 500 mg dose relacorilant with 25 mg prednisone, healthy subjects
  effect on prednisone-induced NLR increase: significantly blunted; also recorded: reversed the effects
